Laboratory results taken from patent US12312359B2 (Vitae Pharmaceuticals, LLC, priority 2016, dated 2025).

Legend:
[1] = Concentration in water to achieve pH=7; assay type: physicochemical
[2] = Water activity analysis (slurries) of sesquifumaric acid salt forms; assay type: physicochemical; conditions: for Result (solid form after water activity slurry): ambient, 7 days; for Form conversion in water activity slurry: 0.22 aw (and up)
[3] = Physical stability analysis of sesquifumaric acid salt forms (drying, heating); assay type: physicochemical
[4] = biological target: T1, biotinylated wild-type menin and MLL-AF9 fusion protein (menin/MLL binding) (Homo sapiens, UniProt O00255); test: Assay 1: menin/MLL binding AlphaLISA assay, wild-type menin; conditions: Table 30; column head does not say wild-type or mutated menin
T1 construct: made in house; host or cells: menin: E. coli; MLL-AF9-FLAG: HEK293 cells, used as cleared lysate
T1 sequence (O00255 1-610): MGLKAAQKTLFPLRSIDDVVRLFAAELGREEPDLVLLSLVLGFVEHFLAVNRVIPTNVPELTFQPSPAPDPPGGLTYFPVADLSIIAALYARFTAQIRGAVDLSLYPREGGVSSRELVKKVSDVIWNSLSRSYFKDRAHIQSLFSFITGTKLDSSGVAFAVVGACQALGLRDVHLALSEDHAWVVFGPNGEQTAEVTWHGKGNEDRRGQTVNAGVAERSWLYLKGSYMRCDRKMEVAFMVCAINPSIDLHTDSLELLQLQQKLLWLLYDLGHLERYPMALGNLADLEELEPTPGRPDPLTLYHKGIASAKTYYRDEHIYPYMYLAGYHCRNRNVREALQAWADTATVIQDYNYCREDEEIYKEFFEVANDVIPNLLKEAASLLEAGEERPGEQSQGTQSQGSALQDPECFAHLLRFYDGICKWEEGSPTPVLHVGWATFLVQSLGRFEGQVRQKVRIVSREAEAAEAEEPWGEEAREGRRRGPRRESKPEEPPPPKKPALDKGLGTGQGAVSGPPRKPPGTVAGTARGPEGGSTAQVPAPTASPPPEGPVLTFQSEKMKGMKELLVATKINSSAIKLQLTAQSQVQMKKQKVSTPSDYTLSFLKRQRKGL
Procedure, shortened: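 Compound was preincubated 30 min at room temperature with biotinylated menin (5 nM) and MLL-AF9-FLAG lysate from HEK293 cells, pH 7.4 buffer with 5% DMSO and DTT. Bead-based Alpha signal after 60 min with streptavidin donor and anti-FLAG acceptor beads; four-parameter logistic fit gave IC50.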

[5] = tested on: human acute monocytic leukemia cell line MV-4-11; test: Assay 2: cell proliferation assay (ATP quantitation, CellTiter-Glo), MV-4-11; assay type: cell-based; conditions: MV-4-11 cells
Procedure, shortened: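 Read-out is CellTiter-Glo luminescence quantifying ATP. Compound exposure lasted 72 h at 37° C., 5% CO2, with 1.67×10^4 MV-4-11 cells per well in 10% FBS medium, alongside HL-60 toxicity-control cells.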

CCN(C(=O)c1cc(F)ccc1Oc1cncnc1N1CC2(CCN(CC3CCC(NS(=O)(=O)CC)CC3)CC2)C1)C(C)C (centres unmarked) [Example 254, N-Ethyl-2-((4-(7-(((1r,4r)-4-(ethylsulfonamido)cyclohexyl)methyl)-2,7-diazaspiro[3.5]nonan-2-yl)pyrimidin-5-yl)oxy)-5-fluoro-N-isopropylbenzamide]
Concentration in water to achieve pH=7 [1]: 7.6 mg/mL

CC(C)N(C(=O)c1cc(F)ccc1Oc1cncnc1N1CC2(CCN(C[C@H]3CC[C@H](NS(C)(=O)=O)CC3)CC2)C1)C(C)C.CC(C)N(C(=O)c1cc(F)ccc1Oc1cncnc1N1CC2(CCN(C[C@H]3CC[C@H](NS(C)(=O)=O)CC3)CC2)C1)C(C)C.O=C(O)/C=C/C(=O)O.O=C(O)/C=C/C(=O)O.O=C(O)/C=C/C(=O)O [Form F, 5-fluoro-N,N-diisopropyl-2-((4-(7-(((1r,4r)-4-(methylsulfonamido)cyclohexyl)methyl)-2,7-diazaspiro[3.5]nonan-2-yl)pyrimidin-5-yl)oxy)benzamide sesquifumaric acid salt]
Form conversion when slurried in ACN/water mixture ([2]; slurried in ACN/water mixture): Conversion to Form A was observed

CC(C)N(C(=O)c1cc(F)ccc1Oc1cncnc1N1CC2(CCN(CC3CCC(NS(C)(=O)=O)CC3)CC2)C1)C(C)C.CC(C)N(C(=O)c1cc(F)ccc1Oc1cncnc1N1CC2(CCN(CC3CCC(NS(C)(=O)=O)CC3)CC2)C1)C(C)C.O=C(O)/C=C/C(=O)O.O=C(O)/C=C/C(=O)O.O=C(O)/C=C/C(=O)O (centres unmarked)
Result (solid form after water activity slurry) ([2]; H2O/ACN, water activity 0.38 (2 vol % H2O)): Form A | Result (solid form after water activity slurry) ([2]; H2O/ACN, water activity 0.60 (4 vol % H2O)): Form A | Result (solid form after water activity slurry) ([2]; H2O/IPA, water activity 0.50 (6 vol % H2O)): Form A | Result (solid form after water activity slurry) ([2]; H2O/IPA, water activity 0.70 (11 vol % H2O)): Form A | Result (solid form after water activity slurry) ([2]; H2O/IPA, water activity 0.96 (50 vol % H2O)): Form A | Result (solid form after water activity slurry) ([2]; H2O/acetone, water activity 0.22 (1 vol % H2O)): Form A | Result (solid form after water activity slurry) ([2]; H2O/acetone, water activity 0.44 (3 vol % H2O)): Form A | Result (solid form after water activity slurry) ([2]; H2O/acetone, water activity 0.80 (18 vol % H2O)): Form A | Result (solid form after water activity slurry) ([2]; H2O/acetone, water activity 0.91 (50 vol % H2O)): Form A

CCN(C(=O)c1cc(F)ccc1Oc1cncnc1N1CC2(CCN(CC3CCC(NS(=O)(=O)CC)CC3)CC2)C1)C(C)C.Cl.Cl (centres unmarked) [Example 257, N-Ethyl-2-((4-(7-(((1r,4r)-4-(ethylsulfonamido)cyclohexyl)methyl)-2,7-diazaspiro[3.5]nonan-2-yl)pyrimidin-5-yl)oxy)-5-fluoro-N-isopropylbenzamide Bis-Hydrochloric Acid Salt]
Concentration in water to achieve pH=7 [1]: 317.6 mg/mL

CC(C)N(C(=O)c1cc(F)ccc1Oc1cncnc1N1CC2(CCN(C[C@H]3CC[C@H](NS(C)(=O)=O)CC3)CC2)C1)C(C)C.CC(C)N(C(=O)c1cc(F)ccc1Oc1cncnc1N1CC2(CCN(C[C@H]3CC[C@H](NS(C)(=O)=O)CC3)CC2)C1)C(C)C.O=C(O)/C=C/C(=O)O.O=C(O)/C=C/C(=O)O.O=C(O)/C=C/C(=O)O [Form B, 5-fluoro-N,N-diisopropyl-2-((4-(7-(((1r,4r)-4-(methylsulfonamido)cyclohexyl)methyl)-2,7-diazaspiro[3.5]nonan-2-yl)pyrimidin-5-yl)oxy)benzamide sesquifumaric acid salt]
Form conversion in water activity slurry [2]: Converted to Form A | Form change after 45° C. vacuum oven [3]: converted to Form D

CC(C)N(C(=O)c1cc(F)ccc1Oc1cncnc1N1CC2(CCN(C[C@H]3CC[C@H](NS(C)(=O)=O)CC3)CC2)C1)C(C)C.CC(C)N(C(=O)c1cc(F)ccc1Oc1cncnc1N1CC2(CCN(C[C@H]3CC[C@H](NS(C)(=O)=O)CC3)CC2)C1)C(C)C.O=C(O)/C=C/C(=O)O.O=C(O)/C=C/C(=O)O.O=C(O)/C=C/C(=O)O [Form E, 5-fluoro-N,N-diisopropyl-2-((4-(7-(((1r,4r)-4-(methylsulfonamido)cyclohexyl)methyl)-2,7-diazaspiro[3.5]nonan-2-yl)pyrimidin-5-yl)oxy)benzamide sesquifumaric acid salt]
Form change after 45° C. vacuum oven [3]: No changes observed in XRPD | Result (solid form after physical stability stress) ([3]; 45° C. vacuum, 1 day): Form E

CC(C)N(C(=O)c1cc(F)ccc1Oc1cncnc1N1CC2(CCN(C[C@H]3CC[C@H](NS(C)(=O)=O)CC3)CC2)C1)C(C)C.CC(C)N(C(=O)c1cc(F)ccc1Oc1cncnc1N1CC2(CCN(C[C@H]3CC[C@H](NS(C)(=O)=O)CC3)CC2)C1)C(C)C.O=C(O)/C=C/C(=O)O.O=C(O)/C=C/C(=O)O.O=C(O)/C=C/C(=O)O [Form D, 5-fluoro-N,N-diisopropyl-2-((4-(7-(((1r,4r)-4-(methylsulfonamido)cyclohexyl)methyl)-2,7-diazaspiro[3.5]nonan-2-yl)pyrimidin-5-yl)oxy)benzamide sesquifumaric acid salt]
Form conversion in water activity slurry [2]: Converted to Form A | Result (solid form after physical stability stress) ([3]; 75% RH, 2 days): Form D

CC(C)c1ccccc1-c1cc(F)ccc1Oc1cncnc1N1CCC2(CCN(Cc3ccc4[nH]c(=O)[nH]c4c3)C2)C1 (single isomer, unassigned) [Example 41B, 5-((7-(5-((5-fluoro-2′-isopropyl-[1,1′-biphenyl]-2-yl)oxy)pyrimidin-4-yl)-2,7-diazaspiro[4.4]nonan-2-yl)methyl)-1H-benzo[d]imidazol-2(3H)-one]
IC50 [4]: < 100 nM | EC50 ([5]; 72 h): < 100 nM

O=C(c1cc(F)ccc1Oc1cncnc1N1CCC2(CCN(Cc3ccc4[nH]c(=O)[nH]c4c3)C2)C1)N1CCCC1 (centres unmarked) [Example 154, 5-((7-(5-(4-fluoro-2-(pyrrolidine-1-carbonyl)phenoxy)pyrimidin-4-yl)-2,7-diazaspiro [4.4]nonan-2-yl)methyl)-1,3-dihydro-2H-benzo[d]imidazol-2-one]
IC50 [4]: < 100 nM | EC50 ([5]; Homo sapiens, MV4-11, 72 h): 100 to 1000 nM

N#Cc1ccc(-c2cc(F)cc(F)c2Oc2cncnc2N2CCC3(CCN(Cc4ccc5[nH]c(=O)[nH]c5c4)C3)C2)c(C2CC2)c1 (centres unmarked) [Example 199, 2-cyclopropyl-3′,5′-difluoro-2′-((4-(7-((2-oxo-2,3-dihydro-1H-benzo[d]imidazol-5-yl)methyl)-2,7-diazaspiro[4.4]nonan-2-yl)pyrimidin-5-yl)oxy)-[1,1′-biphenyl]-4-carbonitrile]
IC50 [4]: < 100 nM | EC50 ([5]; 72 h): ≥ 1000 nM

CC(C)c1ncncc1-c1cc(F)ccc1Oc1cncnc1N1CC2(CC(NC3CCC(C)(C#N)CC3)C2)C1 (single isomer, unassigned) [Example 148B, 4-((2-(5-(4-fluoro-2-(4-isopropylpyrimidin-5-yl)phenoxy)pyrimidin-4-yl)-2-azaspiro[3.3]heptan-6-yl)amino)-1-methylcyclohexane carbonitrile]
IC50 [4]: < 100 nM | EC50 ([5]; 72 h): 100 to 1000 nM

Fc1ccc(Oc2cncnc2N2CCC3(CCN(CC4CCOCC4)C3)C2)c(OC2CCCC2)c1 (centres unmarked) [Example 108, 2-(5-(2-(cyclopentyloxy)-4-fluorophenoxy)pyrimidin-4-yl)-7-((tetrahydro-2H-pyran-4-yl)methyl)-2,7-diazaspiro[4.4]nonane]
IC50 [4]: < 100 nM | EC50 ([5]; Homo sapiens, MV4-11, 72 h): ≥ 1000 nM

CC(C)c1ncncc1-c1cc(F)ccc1Oc1cncnc1N1CC2(CC(NC(C)c3ccc(C#N)cc3)C2)C1 (centres unmarked) [Example 141, 4-(1-((2-(5-(4-fluoro-2-(4-isopropylpyrimidin-5-yl)phenoxy)pyrimidin-4-yl)-2-azaspiro[3.3]heptan-6-yl)amino)ethyl)benzo-nitrile]
IC50 [4]: < 100 nM | EC50 ([5]; Homo sapiens, MV4-11, 72 h): 100 to 1000 nM

CC(C)c1ccccc1-c1cc(F)ccc1Oc1cncnc1N1CC2(CN(C(=O)Cc3ccc(C#N)cc3)C2)C1 [Example 228, 4-(2-(6-(5-((5-fluoro-2′-isopropyl-[1,1′-biphenyl]-2-yl)oxy)pyrimidin-4-yl)-2,6-diazaspiro[3.3]heptan-2-yl)-2-oxoethyl)benzonitrile]
IC50 [4]: < 100 nM | EC50 ([5]; Homo sapiens, MV4-11, 72 h): 100 to 1000 nM
